# According to US20220023433A1, “Saponin Conjugates” (Sapreme Technologies B.V., priority 2018, published 2022):
# Assays:
# [1] = pH dependent hydrolysis of the hydrazone bond followed by MALDI-TOF-MS; type: physicochemical; settings: HCl solution at pH 3; MALDI-TOF-MS at two points in time
# [2] = system: HeLa cells; assay: Cell viability assay (MTS): co-administration with SO1861 and dianthin-EGF, inhibition of SO1861-mediated endosomal escape; type: cell-based, human; settings: 500 nM test substance + SO1861 concentration curve + […] dianthin-EGF, 72 hr
# Protocol: HeLa cells were seeded in DMEM (PAN-Biotech GmbH) supplemented with 10% fetal bovine serum (PAN-Biotech GmbH) and 1% penicillin/streptomycin (PAN-Biotech GmbH), in a 96 well plate at 5,000 c/w in 100 μL/well and incubated overnight at 37° C. and 5% CO2. The next day 20× concentrated stocks of the PAMAM, PAMAM-conjugates, G4-dendron (prepared in Example 3) or chloroquine (Sigma Aldrich) samples were prepared in DMEM. The media was removed from the cell culture plate and replaced by […] culture media, followed by the addition of 10 μL sample/well (from the 20× concentrated stocks) and a 45 min incubation at 37° C. […] Followed by 15 sec sonication and a brief re-heating at 50° C. for 1 min, while shaking at 1,250 rpm. Subsequently a serial dilution of SO1861 was prepared in PBS.
# As control for the inhibition of endosomal acidification chloroquine was used.
# [3] = system: breast cancer; settings: preclinical models of breast cancer; cited from earlier work
compound,measurement,setting,value
CC(=O)OC1C(C)OC(OC2C(C)OC(OC(=O)[C@]34CCC(C)(C)CC3C3=CCC5[C@@]6(C)CC[C@H](OC7OC(C(=O)O)C(O)C(OC8OCC(O)C(O)C8O)C7OC7OC(CO)C(O)C(O)C7O)[C@@](C)(/C=N/NC(=O)CCCCCN7C(=O)C=CC7=O)C6CC[C@@]5(C)[C@]3(C)C[C@H]4O)C(OC3OC(C)C(OC4OCC(O)C(OC5OC(CO)C(O)C(O)C5O)C4O)C(O)C3O)C2O)C(O)C1OC1OCC(O)C(O)C1O (stereo partly drawn) [SO1861-EMCH],hydrolysis of the hydrazone bond,[1],the hydrazone bond is responsive towards hydrolysis and gets cleaved
CCN(CC)CCCC(C)Nc1ccnc2cc(Cl)ccc12 (stereo not drawn) [chloroquine],inhibition of SO1861-mediated endosomal escape of the targeted toxin and subsequent cell killing,[2],inhibit the SO1861-mediated endosomal escape of the targeted toxin and subsequent cell killing
ado-trastuzumab emtansine,dose levels inducing tumor regression,[3],≥ 3 mg/kg
